Legend:
[1] = tested on: Tyrosine-protein kinase ABL1 (Homo sapiens), P00519 [H396P]; conditions: Compound concentration 1000.0 nM
[2] = tested on: Tyrosine-protein kinase ABL1 (Homo sapiens), P00519 [Q252H]; conditions: Compound concentration 1000.0 nM
[3] = biological target: NUAK family SNF1-like kinase 1 (Homo sapiens) (UniProt O60285); conditions: Compound concentration 1000.0 nM
[4] = biological target: Mitogen-activated protein kinase kinase kinase 5 (Homo sapiens) (UniProt Q99683); conditions: Compound concentration 1000.0 nM
[5] = biological target: Bone morphogenetic protein receptor type-2 (Homo sapiens) (UniProt Q13873); conditions: Compound concentration 1000.0 nM
[6] = biological target: Cyclin-dependent kinase 7 (Homo sapiens) (UniProt P50613); conditions: Compound concentration 1000.0 nM
[7] = biological target: Cyclin-dependent kinase-like 1 (Homo sapiens) (UniProt Q00532); conditions: Compound concentration 1000.0 nM
[8] = biological target: Cyclin-dependent kinase-like 2 (Homo sapiens) (UniProt Q92772); conditions: Compound concentration 1000.0 nM
[9] = biological target: Casein kinase I isoform alpha (Homo sapiens) (UniProt P48729); conditions: Compound concentration 1000.0 nM
[10] = biological target: Death-associated protein kinase 1 (Homo sapiens) (UniProt P53355); conditions: Compound concentration 1000.0 nM
[11] = biological target: Death-associated protein kinase 3 (Homo sapiens) (UniProt O43293); conditions: Compound concentration 1000.0 nM
Chain of Death-associated protein kinase 3 (Homo sapiens) (O43293 whole entry, looked up): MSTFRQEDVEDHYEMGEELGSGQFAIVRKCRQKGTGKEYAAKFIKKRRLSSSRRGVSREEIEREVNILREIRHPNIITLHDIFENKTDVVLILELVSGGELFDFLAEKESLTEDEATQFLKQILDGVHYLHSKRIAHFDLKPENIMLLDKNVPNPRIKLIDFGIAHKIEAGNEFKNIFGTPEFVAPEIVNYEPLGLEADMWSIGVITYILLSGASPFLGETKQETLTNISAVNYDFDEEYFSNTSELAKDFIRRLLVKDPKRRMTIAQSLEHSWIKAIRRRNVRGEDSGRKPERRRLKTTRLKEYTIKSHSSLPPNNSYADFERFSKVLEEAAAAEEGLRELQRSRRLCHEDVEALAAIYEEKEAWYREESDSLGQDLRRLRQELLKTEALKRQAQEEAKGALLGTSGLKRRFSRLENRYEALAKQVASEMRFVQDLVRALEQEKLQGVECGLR

[12] = tested on: Epidermal growth factor receptor (Homo sapiens), P00533 [UNDEFINED MUTATION]; conditions: Compound concentration 1000.0 nM
[13] = biological target: Mitogen-activated protein kinase 4 (Homo sapiens) (UniProt P31152); conditions: Compound concentration 1000.0 nM
[14] = biological target: Serine/threonine-protein kinase/endoribonuclease IRE1 (Homo sapiens) (UniProt O75460); conditions: Compound concentration 1000.0 nM
[15] = biological target: Tyrosine-protein kinase Fer (Homo sapiens) (UniProt P16591); conditions: Compound concentration 1000.0 nM
[16] = biological target: Fibroblast growth factor receptor 2 (Homo sapiens) (UniProt P21802); conditions: Compound concentration 1000.0 nM
Chain of Fibroblast growth factor receptor 2 (Homo sapiens) (P21802 22-821 limits assumed): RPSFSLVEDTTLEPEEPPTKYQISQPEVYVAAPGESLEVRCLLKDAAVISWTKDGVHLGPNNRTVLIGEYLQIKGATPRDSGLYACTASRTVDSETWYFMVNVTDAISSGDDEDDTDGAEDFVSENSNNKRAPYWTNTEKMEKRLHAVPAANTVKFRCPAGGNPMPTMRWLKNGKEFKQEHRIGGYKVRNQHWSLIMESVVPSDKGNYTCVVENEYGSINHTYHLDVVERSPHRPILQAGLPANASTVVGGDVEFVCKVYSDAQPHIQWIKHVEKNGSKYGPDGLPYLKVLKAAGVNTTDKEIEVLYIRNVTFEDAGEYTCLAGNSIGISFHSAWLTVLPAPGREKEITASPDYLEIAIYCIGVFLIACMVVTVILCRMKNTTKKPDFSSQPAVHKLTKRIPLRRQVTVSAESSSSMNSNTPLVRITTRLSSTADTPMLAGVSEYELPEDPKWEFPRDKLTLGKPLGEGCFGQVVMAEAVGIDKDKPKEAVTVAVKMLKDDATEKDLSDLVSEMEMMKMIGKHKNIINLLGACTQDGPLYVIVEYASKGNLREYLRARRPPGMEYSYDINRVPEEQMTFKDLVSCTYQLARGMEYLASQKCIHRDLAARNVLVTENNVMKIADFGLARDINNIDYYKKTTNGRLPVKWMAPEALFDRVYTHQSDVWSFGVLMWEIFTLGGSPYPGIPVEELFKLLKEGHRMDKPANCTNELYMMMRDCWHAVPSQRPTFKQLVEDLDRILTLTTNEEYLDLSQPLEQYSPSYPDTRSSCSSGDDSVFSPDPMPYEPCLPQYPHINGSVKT

[17] = biological target: Homeodomain-interacting protein kinase 4 (Homo sapiens) (UniProt Q8NE63); conditions: Compound concentration 1000.0 nM
[18] = biological target: Tyrosine-protein kinase JAK1 (Homo sapiens) (UniProt P23458); conditions: Compound concentration 1000.0 nM
Chain of Tyrosine-protein kinase JAK1 (Homo sapiens) (P23458 whole entry): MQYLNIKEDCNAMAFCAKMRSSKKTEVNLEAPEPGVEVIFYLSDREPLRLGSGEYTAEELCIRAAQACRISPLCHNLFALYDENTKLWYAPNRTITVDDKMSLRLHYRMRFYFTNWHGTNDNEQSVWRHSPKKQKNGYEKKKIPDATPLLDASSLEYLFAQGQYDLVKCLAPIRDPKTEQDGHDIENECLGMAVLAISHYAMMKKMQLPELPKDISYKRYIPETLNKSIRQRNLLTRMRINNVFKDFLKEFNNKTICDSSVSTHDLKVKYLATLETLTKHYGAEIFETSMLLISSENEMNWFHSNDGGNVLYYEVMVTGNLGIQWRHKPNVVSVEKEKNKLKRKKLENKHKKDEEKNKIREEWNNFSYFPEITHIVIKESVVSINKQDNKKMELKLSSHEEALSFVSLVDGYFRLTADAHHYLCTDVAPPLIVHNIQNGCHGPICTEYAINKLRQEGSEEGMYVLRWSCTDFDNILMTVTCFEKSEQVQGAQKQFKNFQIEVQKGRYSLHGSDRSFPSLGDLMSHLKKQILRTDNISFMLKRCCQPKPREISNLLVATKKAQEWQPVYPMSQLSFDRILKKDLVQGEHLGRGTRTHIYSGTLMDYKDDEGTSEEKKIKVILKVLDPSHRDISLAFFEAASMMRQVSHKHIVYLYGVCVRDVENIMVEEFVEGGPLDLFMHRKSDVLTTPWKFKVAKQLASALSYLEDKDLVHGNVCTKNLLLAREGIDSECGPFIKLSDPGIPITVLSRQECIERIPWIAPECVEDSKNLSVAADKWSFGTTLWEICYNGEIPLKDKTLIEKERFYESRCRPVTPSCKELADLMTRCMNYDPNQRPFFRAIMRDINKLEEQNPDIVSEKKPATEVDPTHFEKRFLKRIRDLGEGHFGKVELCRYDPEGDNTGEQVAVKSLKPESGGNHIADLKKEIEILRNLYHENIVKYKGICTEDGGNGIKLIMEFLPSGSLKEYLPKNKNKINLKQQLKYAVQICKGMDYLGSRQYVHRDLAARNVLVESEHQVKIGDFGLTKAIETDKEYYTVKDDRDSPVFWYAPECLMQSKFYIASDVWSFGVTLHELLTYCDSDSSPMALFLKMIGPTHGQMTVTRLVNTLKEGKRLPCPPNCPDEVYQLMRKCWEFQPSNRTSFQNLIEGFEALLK

[19] = biological target: Mitogen-activated protein kinase kinase kinase 13 (Homo sapiens) (UniProt O43283); conditions: Compound concentration 1000.0 nM
[20] = biological target: Mitogen-activated protein kinase kinase kinase kinase 5 (Homo sapiens) (UniProt Q9Y4K4); conditions: Compound concentration 1000.0 nM
[21] = biological target: Mitogen-activated protein kinase kinase kinase 11 (Homo sapiens) (UniProt Q16584); conditions: Compound concentration 1000.0 nM
[22] = biological target: Serine/threonine-protein kinase MRCK beta (Homo sapiens) (UniProt Q9Y5S2); conditions: Compound concentration 1000.0 nM
[23] = biological target: Serine/threonine-protein kinase 3 (Homo sapiens) (UniProt Q13188); conditions: Compound concentration 1000.0 nM
[24] = biological target: Serine/threonine-protein kinase Nek10 (Homo sapiens) (UniProt Q6ZWH5); conditions: Compound concentration 1000.0 nM
[25] = biological target: Mitogen-activated protein kinase 14 (Homo sapiens) (UniProt Q16539); conditions: Compound concentration 1000.0 nM
Chain of Mitogen-activated protein kinase 14 (Homo sapiens) (Q16539 whole entry): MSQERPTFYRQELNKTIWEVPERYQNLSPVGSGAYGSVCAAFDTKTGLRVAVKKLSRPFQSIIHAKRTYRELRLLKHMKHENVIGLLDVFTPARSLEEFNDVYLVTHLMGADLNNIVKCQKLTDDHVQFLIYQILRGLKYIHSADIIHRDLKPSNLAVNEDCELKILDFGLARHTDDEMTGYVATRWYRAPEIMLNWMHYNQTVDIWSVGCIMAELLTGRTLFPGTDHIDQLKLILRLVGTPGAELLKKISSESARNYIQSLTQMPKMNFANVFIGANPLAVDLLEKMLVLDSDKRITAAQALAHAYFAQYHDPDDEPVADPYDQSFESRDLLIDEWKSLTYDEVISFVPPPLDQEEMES

[26] = biological target: Serine/threonine-protein kinase PAK 5 (Homo sapiens) (UniProt Q9P286); conditions: Compound concentration 1000.0 nM
[27] = biological target: 1-phosphatidylinositol 3-phosphate 5-kinase (Homo sapiens) (UniProt Q9Y2I7); conditions: Compound concentration 1000.0 nM
[28] = biological target: Phosphatidylinositol 4-phosphate 5-kinase type-1 alpha (Homo sapiens) (UniProt Q99755); conditions: Compound concentration 1000.0 nM
[29] = biological target: Serine/threonine-protein kinase PknB (Mycobacterium tuberculosis) (UniProt P9WI81); conditions: Compound concentration 1000.0 nM
[30] = biological target: Rho-associated protein kinase 2 (Homo sapiens) (UniProt O75116); conditions: Compound concentration 1000.0 nM
Chain of Rho-associated protein kinase 2 (Homo sapiens) (O75116 whole entry, looked up): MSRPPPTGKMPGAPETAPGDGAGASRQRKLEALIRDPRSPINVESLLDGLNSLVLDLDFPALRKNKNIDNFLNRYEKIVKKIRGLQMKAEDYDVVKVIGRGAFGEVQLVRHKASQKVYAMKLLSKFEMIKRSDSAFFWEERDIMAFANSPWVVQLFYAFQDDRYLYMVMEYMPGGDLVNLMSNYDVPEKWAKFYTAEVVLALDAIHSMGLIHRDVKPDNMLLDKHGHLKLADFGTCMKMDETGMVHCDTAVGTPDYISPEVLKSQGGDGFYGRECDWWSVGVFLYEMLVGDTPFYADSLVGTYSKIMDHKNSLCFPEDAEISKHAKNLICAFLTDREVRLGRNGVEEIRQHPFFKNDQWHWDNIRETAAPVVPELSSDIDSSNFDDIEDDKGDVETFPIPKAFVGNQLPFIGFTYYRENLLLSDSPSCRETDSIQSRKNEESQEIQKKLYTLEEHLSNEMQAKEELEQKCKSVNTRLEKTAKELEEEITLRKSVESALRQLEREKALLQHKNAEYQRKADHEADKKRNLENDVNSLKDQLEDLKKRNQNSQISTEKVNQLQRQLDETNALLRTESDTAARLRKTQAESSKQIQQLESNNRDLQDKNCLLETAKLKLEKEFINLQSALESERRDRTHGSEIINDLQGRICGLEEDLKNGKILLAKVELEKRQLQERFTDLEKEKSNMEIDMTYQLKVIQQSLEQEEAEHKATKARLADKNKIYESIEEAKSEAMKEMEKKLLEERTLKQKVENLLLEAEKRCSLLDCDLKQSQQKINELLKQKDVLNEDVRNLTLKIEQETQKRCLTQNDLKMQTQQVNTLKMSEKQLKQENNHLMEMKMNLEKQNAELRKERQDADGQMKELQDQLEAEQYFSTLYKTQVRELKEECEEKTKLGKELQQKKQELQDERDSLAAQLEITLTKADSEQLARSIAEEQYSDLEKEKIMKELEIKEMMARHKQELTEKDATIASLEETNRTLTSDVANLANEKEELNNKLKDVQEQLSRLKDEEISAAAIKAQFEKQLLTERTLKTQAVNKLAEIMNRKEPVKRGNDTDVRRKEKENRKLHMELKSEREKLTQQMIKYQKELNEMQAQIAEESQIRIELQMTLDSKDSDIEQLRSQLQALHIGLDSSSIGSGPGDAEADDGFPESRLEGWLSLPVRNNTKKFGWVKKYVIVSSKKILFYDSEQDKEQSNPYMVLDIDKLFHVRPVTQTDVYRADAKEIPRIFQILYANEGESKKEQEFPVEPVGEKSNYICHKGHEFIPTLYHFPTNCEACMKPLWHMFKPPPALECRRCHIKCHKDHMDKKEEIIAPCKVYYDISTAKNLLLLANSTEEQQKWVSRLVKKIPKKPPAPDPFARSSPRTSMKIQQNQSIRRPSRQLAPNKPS

[31] = biological target: Ribosomal protein S6 kinase alpha-3 (Homo sapiens) (UniProt P51812); conditions: Compound concentration 1000.0 nM
[32] = biological target: Ribosomal protein S6 kinase alpha-2 (Homo sapiens) (UniProt Q15349); conditions: Compound concentration 1000.0 nM
[33] = biological target: Ribosomal protein S6 kinase alpha-6 (Homo sapiens) (UniProt Q9UK32); conditions: Compound concentration 1000.0 nM
[34] = biological target: Tyrosine-protein kinase Srms (Homo sapiens) (UniProt Q9H3Y6); conditions: Compound concentration 1000.0 nM
[35] = biological target: Serine/threonine-protein kinase 36 (Homo sapiens) (UniProt Q9NRP7); conditions: Compound concentration 1000.0 nM
[36] = biological target: Serine/threonine-protein kinase TAO2 (Homo sapiens) (UniProt Q9UL54); conditions: Compound concentration 1000.0 nM
[37] = biological target: Tyrosine-protein kinase Tec (Homo sapiens) (UniProt P42680); conditions: Compound concentration 1000.0 nM
[38] = biological target: TRAF2 and NCK-interacting protein kinase (Homo sapiens) (UniProt Q9UKE5); conditions: Compound concentration 1000.0 nM
[39] = biological target: Wee1-like protein kinase (Homo sapiens) (UniProt P30291); conditions: Compound concentration 1000.0 nM
[40] = biological target: Serine/threonine-protein kinase 32C (Homo sapiens) (UniProt Q86UX6); conditions: Compound concentration 1000.0 nM
[41] = biological target: 5-hydroxytryptamine receptor 1B (Homo sapiens) (UniProt P28222); conditions: Compound concentration 10.0 uM
[42] = biological target: D(1B) dopamine receptor (Homo sapiens) (UniProt P21918); conditions: Compound concentration 10.0 uM
[43] = biological target: Mu-type opioid receptor (Homo sapiens) (UniProt P35372); conditions: Compound concentration 10.0 uM
Chain of Mu-type opioid receptor (Homo sapiens) (P35372 whole entry): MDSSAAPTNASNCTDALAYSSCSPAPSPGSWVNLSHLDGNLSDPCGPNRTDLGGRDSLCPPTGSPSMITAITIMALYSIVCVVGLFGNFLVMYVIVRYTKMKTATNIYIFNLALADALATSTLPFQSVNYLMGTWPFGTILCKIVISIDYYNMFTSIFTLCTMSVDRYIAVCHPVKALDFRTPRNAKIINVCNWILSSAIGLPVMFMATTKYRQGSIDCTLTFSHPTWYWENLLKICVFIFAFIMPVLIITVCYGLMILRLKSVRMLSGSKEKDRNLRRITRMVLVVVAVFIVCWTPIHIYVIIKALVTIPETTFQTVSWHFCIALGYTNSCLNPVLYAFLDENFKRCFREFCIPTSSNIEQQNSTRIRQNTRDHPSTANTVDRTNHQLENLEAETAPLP

[44] = biological target: Kappa-type opioid receptor (Homo sapiens) (UniProt P41145); conditions: Compound concentration 10.0 uM
Chain of Kappa-type opioid receptor (Homo sapiens) (P41145 whole entry): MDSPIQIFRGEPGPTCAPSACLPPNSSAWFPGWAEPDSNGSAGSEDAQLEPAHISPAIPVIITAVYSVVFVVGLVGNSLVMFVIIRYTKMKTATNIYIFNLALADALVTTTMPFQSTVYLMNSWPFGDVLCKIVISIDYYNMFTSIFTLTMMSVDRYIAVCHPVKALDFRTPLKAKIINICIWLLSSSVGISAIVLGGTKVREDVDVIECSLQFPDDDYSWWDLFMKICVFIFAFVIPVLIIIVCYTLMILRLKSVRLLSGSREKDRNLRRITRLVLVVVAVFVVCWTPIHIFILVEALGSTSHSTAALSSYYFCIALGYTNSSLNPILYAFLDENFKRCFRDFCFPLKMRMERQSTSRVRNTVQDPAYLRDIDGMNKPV

[45] = biological target: Histamine H1 receptor (Homo sapiens) (UniProt P35367); conditions: Compound concentration 10.0 uM
[46] = biological target: Beta-3 adrenergic receptor (Homo sapiens) (UniProt P13945); conditions: Compound concentration 10.0 uM

CCS(=O)(=O)c1cc2cc(C[C@](O)(CC(C)(C)c3ccc(F)cc3C(N)=O)C(F)(F)F)[nH]c2cn1
inactive: residual activity [1] 89% | residual activity [2] 100% | residual activity [3] 100% | residual activity [4] 100% | residual activity [5] 100% | residual activity [6] 95% | residual activity [7] 81% | residual activity [8] 93% | residual activity [9] 100% | residual activity [10] 92% | residual activity [11] 97% | residual activity [12] 89% | residual activity [13] 100% | residual activity [14] 91% | residual activity [15] 96% | residual activity [16] 100% | residual activity [17] 100% | residual activity [18] 95% | residual activity [19] 90% | residual activity [20] 100% | residual activity [21] 100% | residual activity [22] 100% | residual activity [23] 97% | residual activity [24] 100% | residual activity [25] 100% | residual activity [26] 100% | residual activity [27] 97% | residual activity [28] 100% | residual activity [29] 95% | residual activity [30] 100% | residual activity [31] 93% | residual activity [32] 81% | residual activity [33] 82% | residual activity [34] 83% | residual activity [35] 100% | residual activity [36] 85% | residual activity [37] 90% | residual activity [38] 100% | residual activity [39] 100% | residual activity [40] 100% | inhibition [41] 9.55% | inhibition [42] 34.2% | inhibition [43] 7.51% | inhibition [44] 23.4% | inhibition [45] 4.27% | inhibition [46] 13%

CCS(=O)(=O)c1cc2cc(C[C@@](O)(CC(C)(C)c3ccc(F)cc3C(N)=O)C(F)(F)F)[nH]c2cn1
inactive: residual activity [1] 99% | residual activity [2] 92% | residual activity [3] 77% | residual activity [4] 100% | residual activity [5] 91% | residual activity [6] 99% | residual activity [7] 78% | residual activity [8] 90% | residual activity [9] 86% | residual activity [11] 100% | residual activity [12] 94% | residual activity [13] 84% | residual activity [14] 75% | residual activity [15] 74% | residual activity [16] 95% | residual activity [17] 100% | residual activity [18] 90% | residual activity [19] 82% | residual activity [20] 99% | residual activity [21] 92% | residual activity [22] 99% | residual activity [23] 100% | residual activity [24] 88% | residual activity [25] 97% | residual activity [26] 100% | residual activity [27] 69% | residual activity [28] 100% | residual activity [29] 84% | residual activity [30] 76% | residual activity [31] 100% | residual activity [33] 100% | residual activity [34] 72% | residual activity [35] 98% | residual activity [36] 76% | residual activity [37] 100% | residual activity [38] 97% | residual activity [39] 100% | residual activity [40] 90% | inhibition [41] 4.85% | inhibition [42] 32.4% | inhibition [43] 7.98% | inhibition [44] 28.3% | inhibition [45] 6.19% | inhibition [46] 0.63%
active: residual activity [10] 0% | residual activity [32] 0%

Source: ChEMBL document CHEMBL4507277
